Reference: ChEMBL document CHEMBL1201862, “PubChem BioAssay data set” (2004)
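Test compounds were applied to cells in 96-well plates for 48 hours at 5 doses. Here, GI50 denotes the concentration required for 50% inhibition of growth.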 Calls of active or inactive are those of the source. Rule as the data show it: active = GI50 up to about 1.1 µM and inactive = higher.

Columns and labels:
Experiment in all cases: DTP human tumour cell line panel, 48 h
OVCAR-5 = tested on: OVCAR-5
HCT-116 = tested on: HCT-116
BT-549 = tested on: BT-549
SR = tested on: SR
CAKI-1 = tested on: CAKI-1
ACHN = tested on: ACHN
OVCAR-4 = tested on: OVCAR-4
MOLT-4 = tested on: MOLT-4
UACC-257 = tested on: UACC-257
T47D = tested on: T47D
LOX IMVI = tested on: LOX IMVI
NCI-H23 = tested on: NCI-H23
A549 = tested on: A549
HCC 2998 = tested on: HCC 2998
SW-620 = tested on: SW-620
U-251 = tested on: U-251
NCI-H522 = tested on: NCI-H522
DU-145 = tested on: DU-145
CCRF-CEM = tested on: CCRF-CEM

Row | Compound | GI50 (OVCAR-5) | GI50 (HCT-116) | GI50 (BT-549) | GI50 (SR) | GI50 (CAKI-1) | GI50 (ACHN) | GI50 (OVCAR-4) | GI50 (MOLT-4) | GI50 (UACC-257) | GI50 (T47D) | GI50 (LOX IMVI) | GI50 (NCI-H23) | GI50 (A549) | GI50 (HCC 2998) | GI50 (SW-620) | GI50 (U-251) | GI50 (NCI-H522) | GI50 (DU-145) | GI50 (CCRF-CEM)
1 | Cc1c(C#N)c2nc3ccccc3n2c(=O)/c1=C/Nc1ccc(Cl)cc1 | 9.64 µM (inactive) | 16.6 µM (inactive) | 22.7 µM (inactive) | > 100 µM (inactive) | 11.3 µM (inactive) | 10.6 µM (inactive) | > 100 µM (inactive) | 34.9 µM (inactive) | > 100 µM (inactive) | 37.6 µM (inactive) | 30.4 µM (inactive) | 18.1 µM (inactive) | 53.1 µM (inactive) | > 100 µM (inactive) | > 100 µM (inactive) | 7.66 µM (inactive) | 46.2 µM (inactive) |  | 
2 | Cn1c2ccccc2n2c3ncccc3c(=O)cc12 | > 100 µM (inactive) | 15 µM (inactive) | 65.8 µM (inactive) |  | 36.2 µM (inactive) | 27 µM (inactive) | > 100 µM (inactive) | 36.9 µM (inactive) | 75 µM (inactive) | 55.7 µM (inactive) | 29.9 µM (inactive) | 43 µM (inactive) | 20.2 µM (inactive) |  | 50 µM (inactive) | 40.4 µM (inactive) | 31.3 µM (inactive) | 49.5 µM (inactive) | 
3 | O=C1CN2C(c3ccccc3)=NN(c3ccc([N+](=O)[O-])cc3)C2(c2ccccc2)c2cc(Cl)ccc2N1CC1CC1 (centres undefined) | > 100 µM (inactive) | > 100 µM (inactive) | > 100 µM (inactive) | > 100 µM (inactive) | > 100 µM (inactive) | > 100 µM (inactive) | > 100 µM (inactive) | 79.4 µM (inactive) | > 100 µM (inactive) |  | > 100 µM (inactive) | > 100 µM (inactive) | > 100 µM (inactive) | > 100 µM (inactive) | > 100 µM (inactive) | > 100 µM (inactive) | > 100 µM (inactive) | > 100 µM (inactive) | > 100 µM (inactive)
4 | Nc1ccc2c(c1)N(C(=O)CCCC(=O)N1CC(CCl)c3ccc(N)cc31)CC2CCl (centres undefined) | 0.875 µM (active) | 0.394 µM (active) | 0.719 µM (active) | 0.017 µM (active) | 0.141 µM (active) | 0.112 µM (active) | 0.867 µM (active) | 0.0646 µM (active) | 1.26 µM (inactive) |  | 0.267 µM (active) | 0.218 µM (active) | 0.472 µM (active) | 1.45 µM (inactive) | 0.977 µM (active) | 0.513 µM (active) | 0.0713 µM (active) | 0.121 µM (active) | 0.185 µM (active)
5 | O=C(Cc1ccccc1)NN1C(=O)/C(=C\c2ccc([N+](=O)[O-])cc2)S/C1=N\c1ccccc1 | > 100 µM (inactive) | > 100 µM (inactive) |  |  |  | > 100 µM (inactive) | > 100 µM (inactive) | 55 µM (inactive) | > 100 µM (inactive) | 62.1 µM (inactive) |  | 68.5 µM (inactive) | > 100 µM (inactive) | > 100 µM (inactive) | > 100 µM (inactive) | > 100 µM (inactive) |  | > 100 µM (inactive) | 68.9 µM (inactive)
6 | COC1(c2ccc(Cl)cc2)SC=C(C)n2c1noc2=O (centres undefined) | > 100 µM (inactive) | 78.7 µM (inactive) | > 100 µM (inactive) | > 100 µM (inactive) | > 100 µM (inactive) | > 100 µM (inactive) | 63.8 µM (inactive) | > 100 µM (inactive) | > 100 µM (inactive) |  | > 100 µM (inactive) | > 100 µM (inactive) | > 100 µM (inactive) | > 100 µM (inactive) | > 100 µM (inactive) | > 100 µM (inactive) | 89.5 µM (inactive) | > 100 µM (inactive) | > 100 µM (inactive)
7 | CN(C)Cc1cc(C(=O)/C=C/c2c(F)cccc2Cl)cc(CN(C)C)c1O | 18.4 µM (inactive) | 4.48 µM (inactive) | 8.2 µM (inactive) |  | 11.5 µM (inactive) | 3.9 µM (inactive) | 15.2 µM (inactive) | 11.1 µM (inactive) | 11.4 µM (inactive) | 14.9 µM (inactive) | 4.83 µM (inactive) | 14.9 µM (inactive) | 14.3 µM (inactive) | 13.1 µM (inactive) | 9.57 µM (inactive) | 10.8 µM (inactive) |  | 8.77 µM (inactive) | 5.13 µM (inactive)
8 | C=C(C)[C@H]1CC[C@@]23O[C@@H]2[C@@H](C[C@@]2(C)CC(=O)[C@H](CC(=O)C1)O2)OC(=O)[C@@]12CC[C@H](C(=C)C)CC(=O)C[C@H]4O[C@](C)(CC4=O)C[C@@H](OC3=O)[C@@H]1O2 [SINGARDIN] | > 100 µM (inactive) | > 100 µM (inactive) |  |  | > 100 µM (inactive) | > 100 µM (inactive) | > 100 µM (inactive) | > 100 µM (inactive) | > 100 µM (inactive) | > 100 µM (inactive) | > 100 µM (inactive) | > 100 µM (inactive) | > 100 µM (inactive) | > 100 µM (inactive) |  | > 100 µM (inactive) | > 100 µM (inactive) | > 100 µM (inactive) | 91.8 µM (inactive)
